In the assay the test system is isolated microspores of vegetable fennel (VF-2). The assay can be described thus: Isolated microspore culture of fennel with EBR in the medium (embryo formation). In kind it is cell-based, fennel (Foeniculum vulgare). The settings on record: FIG. 5. The protocol:
FIG. 5. Effect of 24-Epibrassinolide on microspore embryogenesis of vegetable fennel (VF-2). A=NLN-25; B=NLN-25+0.1 mM EBR; C=NLN-25+1.0 mM EBR; D=NLN-25 changed to NLN-10; E=NLN-25+0.1 mM EBR changed to NLN-10; and F=NLN-25+1.0 mM EBR changed to NLN-10.
Several basal media were compared for fennel microspore embryogenesis. Donor plants for microspore culture were grown as described herein. Flower buds were measured and buds in the range of 1-3 mm were put into Lipshaw baskets. The Lipshaw baskets were immersed for one minute in 70% ethanol in a sterile beaker and placed on a shaker. After one minute, the ethanol was removed and the baskets containing the buds were rinsed with sterile water. The Lipshaw baskets were immersed for 15 min in 6% sodium hypochlorite in a sterile beaker placed on a shaker. After 15 min, the sodium hypochlorite was removed by three 5-min washes with sterile water. The buds were removed from the Lipshaw baskets with sterile forceps and placed in a mortar with 5 mL of half-strength Gamborg B5 medium with 13% sucrose. The buds were gently crushed with a pestle, and the resulting suspension was filtered through a 44 μm nylon screen cloth into a 50 mL sterile centrifuge tube. The mortar and filter were rinsed three times with 5 mL of half-strength B5-13 which was filtered and added to the suspension to a total of 20 mL. […]

As for `CC(C)[C@@H](C)[C@@H](O)[C@H](O)[C@@H](C)[C@H]1CC[C@H]2[C@@H]3COC(=O)[C@H]4C[C@H](O)[C@H](O)C[C@]4(C)[C@H]3CC[C@]12C` [24 EBR, 24-epibrassinolide], the “fennel embryo formation (microspore embryogenesis)” value is reported as “somewhat inhibitory” (continued exposure to EBR, NLN-25 medium, 32° C. for 3 days then 24° C.); “stimulatory” (media change after 72 h to a lower sucrose concentration and removal of the EBR).

The values are drawn from patent US7923248B2, “Methods for producing microspore derived doubled haploid apiaceae” (NRC, priority 2005, dated 2011).
